Laboratory results taken from patent publication US12403107B2, “Lipid pharmaceutical preparation and application thereof” (HUZHOU INNOVATION PHARMACEUTICAL CO., LTD., priority 2019, dated 2025).
Where two headings read alike, the source gives them in different places.

Tests used:
[1] = Blood lidocaine concentration after 2-hour constant-rate intramuscular infusion, literature (Ikeda et al.); type: in vivo, Rats; settings: rat, dose 60 mg/kg, infusion t = 0-2 hours, calculated with elimination half-life = 2 hours, read-out: blood drug concentration of lidocaine
[2] = dose 60 mg/kg, infused into the muscle at a constant rate t = 0-2 hours, cited from earlier work

## CCN(CC)CC(=O)Nc1c(C)cccc1C [preparation in the reference, lidocaine]
[1]; time 6 hour
  concentration at 6 h: 400 ng/mL
[1]; time 8 hour
  concentration at 8 h: 200 ng/mL
[1]; time 12 hour
  concentration at 12 h: 100 ng/mL
[1]; time 15 hour
  concentration at 15 h: 35.3 ng/mL
[1]; time 18 hour
  concentration at 18 h: 6.25 ng/mL
[1]; time 24 hour
  concentration at 24 h: 1.6 ng/mL
[1]; time 30 hour
  concentration at 30 h: 0.2 ng/mL
[1]; time 36 hour
  concentration at 36 h: 0 ng/mL
[1]; time 42 hour
  concentration at 42 h: 0 ng/mL
[1]; time 48 hour
  concentration at 48 h: 0 ng/mL
[1]; time 54 hour
  concentration at 54 h: 0 ng/mL
[1]; time 60 hour
  concentration at 60 h: 0 ng/mL
[1]; time 66 hour
  concentration at 66 h: 0 ng/mL
[1]; time 72 hour
  concentration at 72 h: 0 ng/mL
[2]; time 0 hour
  blood drug concentration of lidocaine: 0 ng/mL
[2]; time 0.25 hour
  blood drug concentration of lidocaine: 1900 ng/mL
[2]; time 0.5 hour
  blood drug concentration of lidocaine: 5800 ng/mL
[2]; time 1 hour
  blood drug concentration of lidocaine: 8200 ng/mL
[2]; time 2 hour
  blood drug concentration of lidocaine: 10500 ng/mL
[2]; time 4 hour
  blood drug concentration of lidocaine: 800 ng/mL
